Measurements taken from PubChem BioAssay (NCI).
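Where inhibition never reached the appropriate level, the endpoint shown equals the highest concentration tested. Otherwise, values were interpolated linearly from a five-concentration, 48-hour dose response in 96-well plates. Abbreviation: GI50, concentration required for 50% inhibition of growth. TGI: total growth inhibition.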

What was measured:
Assay in all cases: NCI tumour cell line growth inhibition, 48 h
[1] = system: UACC-62 melanoma
[2] = system: SK-MEL-5 melanoma
[3] = system: SK-MEL-28 melanoma
[4] = system: SK-MEL-2 melanoma
[5] = system: SNB-75 CNS
[6] = system: MALME-3M melanoma
[7] = system: NCI-H522 lung
[8] = system: DMS 114 small cell lung
[9] = system: OVCAR-4 ovarian
[10] = system: SK-OV-3 ovarian
[11] = system: U251 CNS
[12] = system: M14 melanoma
[13] = system: SF-295 CNS
[14] = system: IGROV1 ovarian
[15] = system: EKVX NSCLC
[16] = system: RPMI-8226 leukemia
[17] = system: SF-539 CNS
[18] = system: HCT-116 colon
[19] = system: CAKI-1 renal
[20] = system: A549 NSCLC
[21] = system: HT29 colon
[22] = system: MOLT-4 leukemia
[23] = system: XF 498 CNS
[24] = system: NCI-H226 lung
[25] = system: TK-10 renal
[26] = system: M19-MEL melanoma
[27] = system: NCI-H23 lung
[28] = system: SN12C renal
[29] = system: UACC-257 melanoma
[30] = system: LOX IMVI melanoma
[31] = system: SF-268 CNS
[32] = system: COLO 205 colon
[33] = system: HCC-2998 colon
[34] = system: ACHN renal
[35] = system: OVCAR-3 ovarian
[36] = system: RXF 393 renal
[37] = system: CCRF-CEM leukemia
[38] = system: A498 renal
[39] = system: RXF-631 renal
[40] = system: LXFL 529 NSCLC
[41] = system: 786-0 renal
[42] = system: OVCAR-5 ovarian
[43] = system: SNB-78 CNS
[44] = system: KM12 colon
[45] = system: SNB-19 CNS
[46] = system: OVCAR-8 ovarian
[47] = system: HOP-62 NSCLC
[48] = system: K-562 leukemia
[49] = system: KM20L2 colon
[50] = system: HCT-15 colon
[51] = system: UO-31 renal
[52] = system: DMS 273 small cell lung
[53] = system: NCI-H460 lung
[54] = system: SW-620 colon
[55] = system: HL-60(TB) leukemia
[56] = system: HOP-92 NSCLC
[57] = system: SR leukemia
[58] = system: HOP-18 NSCLC
[59] = system: DLD-1 colon

SMILES: O=C1OCc2c1cc1ccc(O)c(OC3OC(CO)C(O)C(O)C3O)c1c2-c1ccc2c(c1)OCO2 (stereo not drawn)
- TGI [1]: > 100 µM
- GI50 [2]: 26.2 µM
- TGI [2]: 74.9 µM
- TGI [3]: > 100 µM
- GI50 [4]: 33.5 µM
- TGI [4]: > 100 µM
- GI50 [5]: 55.2 µM
- TGI [5]: > 100 µM
- TGI [6]: > 100 µM
- GI50 [7]: 22.6 µM
- TGI [7]: 59.9 µM
- TGI [8]: > 100 µM
- GI50 [9]: 56.2 µM
- TGI [9]: > 100 µM
- TGI [10]: > 100 µM
- TGI [11]: > 100 µM
- TGI [12]: > 100 µM
- TGI [13]: > 100 µM
- TGI [14]: > 100 µM
- TGI [15]: > 100 µM
- GI50 [16]: 34.6 µM
- TGI [16]: > 100 µM
- TGI [17]: > 100 µM
- GI50 [18]: 39.7 µM
- TGI [18]: > 100 µM
- TGI [19]: > 100 µM
- TGI [20]: > 100 µM
- TGI [21]: > 100 µM
- GI50 [22]: 34.3 µM
- TGI [22]: > 100 µM
- TGI [23]: > 100 µM
- GI50 [24]: 48.4 µM
- TGI [24]: > 100 µM
- TGI [25]: > 100 µM
- GI50 [26]: 38.2 µM
- TGI [26]: > 100 µM
- GI50 [27]: 47.5 µM
- TGI [27]: > 100 µM
- TGI [28]: > 100 µM
- GI50 [29]: 37.9 µM
- TGI [29]: > 100 µM
- TGI [30]: > 100 µM
- GI50 [31]: 57.1 µM
- TGI [31]: > 100 µM
- TGI [32]: > 100 µM
- GI50 [33]: 38.2 µM
- TGI [33]: > 100 µM
- TGI [34]: > 100 µM
- GI50 [35]: 64.6 µM
- TGI [35]: > 100 µM
- TGI [36]: > 100 µM
- GI50 [37]: 34.9 µM
- TGI [37]: > 100 µM
- TGI [38]: > 100 µM
- TGI [39]: > 100 µM
- TGI [40]: > 100 µM
- TGI [41]: > 100 µM
- TGI [42]: > 100 µM
- TGI [43]: > 100 µM
- GI50 [44]: 23.4 µM
- TGI [44]: > 100 µM
- GI50 [45]: 36 µM
- TGI [45]: > 100 µM
- TGI [46]: > 100 µM
- TGI [47]: > 100 µM
- GI50 [48]: 39.5 µM
- TGI [48]: > 100 µM
- TGI [49]: > 100 µM
- TGI [50]: > 100 µM
- GI50 [51]: 27.2 µM
- TGI [51]: > 100 µM
- TGI [52]: > 100 µM
- TGI [53]: > 100 µM
- TGI [54]: > 100 µM

SMILES: COC(=O)C[C@H]1CCC2(OCCO2)[C@]1(C)C(=O)OC
- TGI [1]: > 100 µM
- TGI [2]: > 100 µM
- TGI [3]: > 100 µM
- TGI [4]: > 100 µM
- TGI [5]: > 100 µM
- TGI [6]: > 100 µM
- TGI [7]: > 100 µM
- TGI [8]: > 100 µM
- TGI [9]: > 100 µM
- TGI [10]: > 100 µM
- TGI [11]: > 100 µM
- TGI [12]: > 100 µM
- TGI [13]: > 100 µM
- TGI [14]: > 100 µM
- TGI [15]: > 100 µM
- TGI [16]: > 100 µM
- TGI [17]: > 100 µM
- TGI [18]: > 100 µM
- TGI [19]: > 100 µM
- TGI [20]: > 100 µM
- TGI [21]: > 100 µM
- TGI [22]: > 100 µM
- TGI [23]: > 100 µM
- TGI [25]: > 100 µM
- TGI [26]: > 100 µM
- TGI [27]: > 100 µM
- TGI [28]: > 100 µM
- TGI [29]: > 100 µM
- TGI [30]: > 100 µM
- TGI [31]: > 100 µM
- TGI [32]: > 100 µM
- TGI [34]: > 100 µM
- TGI [35]: > 100 µM
- TGI [55]: > 100 µM
- TGI [36]: > 100 µM
- TGI [37]: > 100 µM
- TGI [38]: > 100 µM
- TGI [39]: > 100 µM
- TGI [40]: > 100 µM
- TGI [41]: > 100 µM
- TGI [42]: > 100 µM
- TGI [43]: > 100 µM
- TGI [44]: > 100 µM
- TGI [45]: > 100 µM
- TGI [46]: > 100 µM
- TGI [47]: > 100 µM
- TGI [56]: > 100 µM
- TGI [48]: > 100 µM
- TGI [50]: > 100 µM
- TGI [51]: > 100 µM
- TGI [52]: > 100 µM
- TGI [53]: > 100 µM
- TGI [54]: > 100 µM

SMILES: COC(=O)CC(=O)C[P+](c1ccccc1)(c1ccccc1)c1ccccc1
- TGI [1]: > 218 µM
- TGI [2]: > 218 µM
- TGI [3]: > 218 µM
- TGI [4]: > 218 µM
- TGI [6]: > 218 µM
- TGI [7]: 86.8 µM
- TGI [8]: > 218 µM
- TGI [10]: > 218 µM
- TGI [11]: > 218 µM
- TGI [13]: > 218 µM
- TGI [14]: > 218 µM
- TGI [15]: > 218 µM
- TGI [16]: > 218 µM
- TGI [17]: > 218 µM
- TGI [18]: > 218 µM
- TGI [19]: > 218 µM
- TGI [20]: > 218 µM
- TGI [21]: > 218 µM
- TGI [22]: > 218 µM
- TGI [23]: 201 µM
- TGI [24]: > 218 µM
- TGI [25]: > 218 µM
- TGI [26]: > 218 µM
- TGI [57]: > 218 µM
- TGI [27]: > 218 µM
- TGI [28]: > 218 µM
- TGI [29]: > 218 µM
- TGI [30]: > 218 µM
- TGI [31]: > 218 µM
- TGI [32]: > 218 µM
- TGI [33]: > 218 µM
- TGI [34]: > 218 µM
- TGI [35]: > 218 µM
- TGI [55]: 149 µM
- TGI [36]: > 218 µM
- TGI [37]: > 218 µM
- TGI [39]: > 218 µM
- TGI [40]: > 218 µM
- TGI [41]: > 218 µM
- TGI [58]: > 218 µM
- TGI [44]: > 218 µM
- TGI [45]: > 218 µM
- TGI [46]: > 218 µM
- TGI [47]: > 218 µM
- TGI [59]: > 218 µM
- TGI [56]: > 218 µM
- TGI [48]: > 218 µM
- TGI [49]: > 218 µM
- TGI [50]: 215 µM
- TGI [52]: > 218 µM
- TGI [53]: > 218 µM
- TGI [54]: > 218 µM

SMILES: COc1ccccc1C1C(C(=O)Nc2ccccc2)=C(C)NC(C)=C1C(=O)Nc1ccccc1
- TGI [1]: > 100 µM
- TGI [2]: > 100 µM
- TGI [3]: > 100 µM
- TGI [4]: > 100 µM
- TGI [5]: > 100 µM
- TGI [6]: > 100 µM
- TGI [7]: > 100 µM
- TGI [8]: > 100 µM
- TGI [9]: > 100 µM
- TGI [10]: > 100 µM
- TGI [11]: > 100 µM
- TGI [12]: > 100 µM
- TGI [13]: > 100 µM
- TGI [14]: > 100 µM
- TGI [15]: > 100 µM
- TGI [16]: > 100 µM
- TGI [17]: > 100 µM
- TGI [18]: > 100 µM
- TGI [19]: > 100 µM
- TGI [21]: > 100 µM
- TGI [22]: 56.8 µM
- TGI [23]: > 100 µM
- TGI [24]: > 100 µM
- TGI [25]: > 100 µM
- TGI [26]: > 100 µM
- TGI [27]: > 100 µM
- TGI [28]: > 100 µM
- TGI [29]: > 100 µM
- TGI [30]: > 100 µM
- TGI [31]: > 100 µM
- TGI [32]: 65.2 µM
- TGI [33]: > 100 µM
- TGI [34]: > 100 µM
- TGI [35]: > 100 µM
- TGI [36]: > 100 µM
- TGI [38]: 82.5 µM
- TGI [39]: > 100 µM
- TGI [40]: > 100 µM
- TGI [41]: > 100 µM
- TGI [58]: > 100 µM
- TGI [42]: > 100 µM
- TGI [43]: > 100 µM
- TGI [44]: > 100 µM
- TGI [45]: > 100 µM
- TGI [46]: > 100 µM
- TGI [47]: > 100 µM
- TGI [56]: > 100 µM
- TGI [48]: > 100 µM
- TGI [49]: > 100 µM
- TGI [50]: > 100 µM
- TGI [51]: > 100 µM
- TGI [52]: > 100 µM
- TGI [53]: > 100 µM
- TGI [54]: > 100 µM
